According to PubChem BioAssay (NCI):
Where “and” joins values, the source holds several entries; their conditions need not be identical. Equal values may be shown once.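 Step 1: Grow cells in 96-well plates. Step 2: Expose to compound for 48 hours at 5 concentrations. Step 3: Interpolate endpoints linearly; if unreached, use highest concentration. Definition used: TGI = concentration required for complete inhibition of growth.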

How the values were obtained:
Test in all cases: NCI tumour cell line growth inhibition, 48 h
IGROV1 ovarian = system: IGROV1 ovarian
A549 NSCLC = system: A549 NSCLC
NCI/ADR-RES ovarian = system: NCI/ADR-RES ovarian
DMS 273 small cell lung = system: DMS 273 small cell lung
MCF7 breast = system: MCF7 breast
SF-268 CNS = system: SF-268 CNS
HCC-2998 colon = system: HCC-2998 colon
DMS 114 small cell lung = system: DMS 114 small cell lung
SN12K1 renal = system: SN12K1 renal
SF-539 CNS = system: SF-539 CNS
HL-60(TB) leukemia = system: HL-60(TB) leukemia
SK-MEL-2 melanoma = system: SK-MEL-2 melanoma
XF 498 CNS = system: XF 498 CNS
SK-MEL-28 melanoma = system: SK-MEL-28 melanoma
K-562 leukemia = system: K-562 leukemia
SW-620 colon = system: SW-620 colon
NCI-H226 lung = system: NCI-H226 lung
SK-MEL-5 melanoma = system: SK-MEL-5 melanoma
SNB-78 CNS = system: SNB-78 CNS
OVCAR-8 ovarian = system: OVCAR-8 ovarian
HT29 colon = system: HT29 colon
EKVX NSCLC = system: EKVX NSCLC
MOLT-4 leukemia = system: MOLT-4 leukemia
SF-295 CNS = system: SF-295 CNS
OVCAR-3 ovarian = system: OVCAR-3 ovarian
SNB-75 CNS = system: SNB-75 CNS
NCI-H522 lung = system: NCI-H522 lung
LOX IMVI melanoma = system: LOX IMVI melanoma
UO-31 renal = system: UO-31 renal
HOP-18 NSCLC = system: HOP-18 NSCLC
M19-MEL melanoma = system: M19-MEL melanoma
MALME-3M melanoma = system: MALME-3M melanoma
DLD-1 colon = system: DLD-1 colon
COLO 205 colon = system: COLO 205 colon
P388 leukemia = system: P388 leukemia
SNB-19 CNS = system: SNB-19 CNS
SN12C renal = system: SN12C renal
HOP-62 NSCLC = system: HOP-62 NSCLC
RXF 393 renal = system: RXF 393 renal
OVCAR-5 ovarian = system: OVCAR-5 ovarian
NCI-H460 lung = system: NCI-H460 lung
NCI-H23 lung = system: NCI-H23 lung
HOP-92 NSCLC = system: HOP-92 NSCLC
P388/ADR leukemia = system: P388/ADR leukemia
KM20L2 colon = system: KM20L2 colon
HCT-15 colon = system: HCT-15 colon
HCT-116 colon = system: HCT-116 colon
A498 renal = system: A498 renal
U251 CNS = system: U251 CNS
KM12 colon = system: KM12 colon
UACC-62 melanoma = system: UACC-62 melanoma
UACC-257 melanoma = system: UACC-257 melanoma
SK-OV-3 ovarian = system: SK-OV-3 ovarian
CAKI-1 renal = system: CAKI-1 renal
RPMI-8226 leukemia = system: RPMI-8226 leukemia
OVCAR-4 ovarian = system: OVCAR-4 ovarian
RXF-631 renal = system: RXF-631 renal
SR leukemia = system: SR leukemia
CCRF-CEM leukemia = system: CCRF-CEM leukemia
M14 melanoma = system: M14 melanoma
LXFL 529 NSCLC = system: LXFL 529 NSCLC
ACHN renal = system: ACHN renal
TK-10 renal = system: TK-10 renal
786-0 renal = system: 786-0 renal

C#CC[N+](CCO)(CCO)CCCCCCCCCCCCCCCCCC
TGI (IGROV1 ovarian): 5.13 µM | TGI (A549 NSCLC): 36.5 µM | TGI (NCI/ADR-RES ovarian): 39.5 µM | TGI (DMS 273 small cell lung): 22.6 µM | TGI (MCF7 breast): 36.5 µM | TGI (SF-268 CNS): 26.2 µM | TGI (HCC-2998 colon): 23.7 µM | TGI (DMS 114 small cell lung): 33 µM | TGI (SN12K1 renal): 30 µM | TGI (SF-539 CNS): 30.2 µM | TGI (HL-60(TB) leukemia): 3.43 µM | TGI (SK-MEL-2 melanoma): 31.8 µM | TGI (XF 498 CNS): 17.3 µM | TGI (SK-MEL-28 melanoma): 30.6 µM | TGI (K-562 leukemia): > 41.2 µM | TGI (SW-620 colon): 34.9 µM | TGI (NCI-H226 lung): 29.2 µM | TGI (SK-MEL-5 melanoma): 32.1 µM | TGI (SNB-78 CNS): 28.4 µM | TGI (OVCAR-8 ovarian): 43.1 µM | TGI (HT29 colon): 20.1 µM | TGI (EKVX NSCLC): 51.1 µM | TGI (MOLT-4 leukemia): 9.7 µM | TGI (SF-295 CNS): 24.1 µM | TGI (OVCAR-3 ovarian): 35.9 µM | TGI (SNB-75 CNS): 15.9 µM | TGI (NCI-H522 lung): 21.7 µM | TGI (LOX IMVI melanoma): > 48.3 µM | TGI (UO-31 renal): 34.9 µM | TGI (HOP-18 NSCLC): 22.1 µM | TGI (M19-MEL melanoma): 15 µM | TGI (MALME-3M melanoma): 32.3 µM | TGI (DLD-1 colon): 24.5 µM | TGI (COLO 205 colon): 27.1 µM | TGI (P388 leukemia): 2.5 µM | TGI (SNB-19 CNS): 20.7 µM | TGI (SN12C renal): 39.3 µM | TGI (HOP-62 NSCLC): 25.5 µM | TGI (RXF 393 renal): 6.64 µM | TGI (OVCAR-5 ovarian): 32.5 µM | TGI (NCI-H460 lung): 27.9 µM | TGI (NCI-H23 lung): 30.1 µM | TGI (HOP-92 NSCLC): 5.2 µM | TGI (P388/ADR leukemia): > 43.7 µM | TGI (KM20L2 colon): 25.8 µM | TGI (HCT-15 colon): 50.8 µM | TGI (HCT-116 colon): 27.4 µM | TGI (A498 renal): 37.8 µM | TGI (U251 CNS): 27.5 µM | TGI (KM12 colon): 8.97 µM | TGI (UACC-62 melanoma): 25.4 µM | TGI (UACC-257 melanoma): 31 µM | TGI (SK-OV-3 ovarian): 36.1 µM | TGI (CAKI-1 renal): 15.9 µM | TGI (RPMI-8226 leukemia): > 29 µM | TGI (OVCAR-4 ovarian): 25 µM

O=NN(CCCl)C(=O)NC1CCC(C(=O)O)CC1 (stereo not given)
TGI (IGROV1 ovarian): > 100 µM | TGI (A549 NSCLC): > 100 µM | TGI (NCI/ADR-RES ovarian): > 100 µM | TGI (DMS 273 small cell lung): > 100 µM | TGI (MCF7 breast): > 100 µM | TGI (RXF-631 renal): > 100 µM | TGI (SF-268 CNS): > 100 µM | TGI (HCC-2998 colon): > 100 µM | TGI (SR leukemia): > 100 µM | TGI (DMS 114 small cell lung): > 100 µM and 49 µM | TGI (SN12K1 renal): > 100 µM | TGI (SF-539 CNS): > 100 µM | TGI (HL-60(TB) leukemia): > 100 µM | TGI (SK-MEL-2 melanoma): > 100 µM | TGI (XF 498 CNS): > 100 µM | TGI (SK-MEL-28 melanoma): > 100 µM | TGI (K-562 leukemia): > 100 µM | TGI (SW-620 colon): > 100 µM | TGI (NCI-H226 lung): > 100 µM | TGI (SK-MEL-5 melanoma): > 100 µM | TGI (SNB-78 CNS): > 100 µM | TGI (OVCAR-8 ovarian): > 100 µM | TGI (HT29 colon): > 100 µM | TGI (EKVX NSCLC): > 100 µM | TGI (MOLT-4 leukemia): > 80.9 µM | TGI (SF-295 CNS): > 100 µM | TGI (OVCAR-3 ovarian): > 100 µM | TGI (SNB-75 CNS): > 100 µM | TGI (NCI-H522 lung): 75.1 µM and > 100 µM | TGI (LOX IMVI melanoma): > 100 µM | TGI (UO-31 renal): > 100 µM | TGI (HOP-18 NSCLC): > 100 µM | TGI (M19-MEL melanoma): > 100 µM | TGI (MALME-3M melanoma): > 100 µM | TGI (DLD-1 colon): > 100 µM | TGI (CCRF-CEM leukemia): > 100 µM | TGI (COLO 205 colon): > 100 µM | TGI (P388 leukemia): 16.2 µM and 19.2 µM | TGI (SNB-19 CNS): > 100 µM | TGI (SN12C renal): > 100 µM | TGI (HOP-62 NSCLC): > 100 µM | TGI (RXF 393 renal): > 100 µM | TGI (OVCAR-5 ovarian): > 100 µM | TGI (NCI-H460 lung): > 100 µM | TGI (M14 melanoma): > 100 µM | TGI (NCI-H23 lung): > 100 µM | TGI (HOP-92 NSCLC): > 100 µM | TGI (P388/ADR leukemia): 17.5 µM and 33.8 µM | TGI (KM20L2 colon): > 100 µM | TGI (HCT-15 colon): > 100 µM | TGI (HCT-116 colon): > 100 µM | TGI (A498 renal): > 100 µM | TGI (LXFL 529 NSCLC): > 100 µM | TGI (U251 CNS): > 100 µM | TGI (ACHN renal): > 100 µM | TGI (KM12 colon): > 100 µM | TGI (UACC-62 melanoma): > 100 µM | TGI (TK-10 renal): > 100 µM | TGI (786-0 renal): > 100 µM | TGI (UACC-257 melanoma): > 100 µM | TGI (SK-OV-3 ovarian): > 100 µM | TGI (CAKI-1 renal): > 100 µM | TGI (RPMI-8226 leukemia): > 100 µM | TGI (OVCAR-4 ovarian): > 100 µM
